# Measured values published in patent US4731363A, “Thromboxane synthase inhibitors as insulin lowering agents and antiobesity agents” (priority 1986, dated 1988).
# Tests used:
# male Zucker rats = test: Carcass weight and carcass lipid and protein levels in male Zucker rats; type: in vivo, rat; details: 29 days; for Carcass Protein % of carcass weight / Carcass Protein total / Carcass Lipids % of carcass weight / Carcass Lipids total / Carcass Weight: mean ± S.E.
# Protocol: In one study, carcass composition was determined. After treatment, rats were sacrificed by decapitation, and livers and blood were removed. Carcasses were weighed, saponified in alcoholic potassium hydroxide, acidified and extracted with petroleum ether. The petroleum ether supernatants were transferred to preweighed glass vials, evaporated immediately to dryness under nitrogen and reweighed. Total carcass data are expressed in grams and percentages of carcass weight. An aliquot of saponified carcass extract was neutralized, and total carcass nitrogen was determined using Kjeldahl procedure. Carcass protein data are expressed in grams and percentages of carcass weight.
# ^a Four month old male Zucker rats (four per group) were fed G70:1%
# corn oil diet ad libitum for 24 days prior to treatment.
# 1[4(1H--imidazol1-yl)phenyl]ethanone was then mixed into the G70:1% corn
# oil diet and rats were fed ad libitum for 29 days. On day 29 rats were
# killed by decapitation and the carcasses (minus liver and blood) were
# analyzed for total lipid and protein. Each value is the mean ± S.E.
# ^b Amount of 1[4(1H--imidazol1-yl)phenyl]ethanone ingested per day pe
# ^c Values in parentheses indicate percent of control.
# [1] = molecular target: T1, thromboxane synthase (Human Platelet Microsomes) (Homo sapiens, UniProt P24557); test: Thromboxane synthase inhibition, human platelet microsomes; type: biochemical; details: enzyme source H = Human Platelet Microsomes; read-out: IC50
# T1 construct: Platelets were obtained from 320 ml of whole blood and resuspended in 5.0 ml of Krebs-Hensleit buffer; from tissue; host or cells: human platelets (microsomes, 110,000 g pellet)
# T1 sequence (P24557 1-533): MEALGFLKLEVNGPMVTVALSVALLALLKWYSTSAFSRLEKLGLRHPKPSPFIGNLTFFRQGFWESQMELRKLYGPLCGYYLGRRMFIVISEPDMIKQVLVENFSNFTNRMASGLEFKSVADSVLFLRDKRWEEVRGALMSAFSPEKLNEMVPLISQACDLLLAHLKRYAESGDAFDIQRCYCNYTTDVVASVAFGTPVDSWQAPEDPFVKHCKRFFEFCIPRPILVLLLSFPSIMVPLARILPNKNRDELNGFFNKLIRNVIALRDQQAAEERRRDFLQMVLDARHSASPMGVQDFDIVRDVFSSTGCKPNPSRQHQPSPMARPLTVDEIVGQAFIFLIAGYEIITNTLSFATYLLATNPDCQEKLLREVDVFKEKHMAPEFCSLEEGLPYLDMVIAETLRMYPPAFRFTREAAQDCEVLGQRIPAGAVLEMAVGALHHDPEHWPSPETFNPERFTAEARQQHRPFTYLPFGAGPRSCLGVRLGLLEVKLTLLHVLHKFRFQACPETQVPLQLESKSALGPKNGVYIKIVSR
# Protocol: In said assay procedure, microsomes from guinea pig lung or human platelets are added to an endoperoxide intermediate in prostaglandin biosynthesis and the inhibitor in phosphate buffer solution followed by incubation, extraction and determination of the extent of thromboxane synthase inhibition by TLC with radiochromatographic profile analysis.
# Determination of Inhibition of Thromboxane Synthase Activity Isolation of Human Platelet Microsomes
# Platelets were obtained from 320 ml of whole blood and resuspended in 5.0 ml of Krebs-Hensleit buffer (CA^+2 free). After three consecutive freeze-thawing cycles, homogenization and centrifugation at 12,000 g for 45 min., the 12,000 supernatant was recentrifuged at 110,000 g for 60 min. The resultant pellet was resuspended in phosphate buffer (0.5 ml, 0.1M, pH 7.5) and stored at -70° until use.
# Low specific activity PGH2 (3.3 μCi/μmole) was obtained from Dr. W. E. M. Lands of the University of Michigan. PGH2 of higher specific activity (16.0 μCi/μmole) was purchased from Ran Biochemicals, Tel-Aviv, Israel.
# The inhibitors tested were prepared as solutions (1-10 mg/ml) in 95% ethanol.
# Assay for Thromboxane Synthase
# To a 12×75 mm tube containing [1-^14 C] PGH2 (2 μg, 0.01 μCi or 0.05 μCi) and inhibitor (1 mM final assay concentration, in 10 μl of ethanol) in 225 μl of phosphate buffer (0.1M, pH 7.5), was added to an aliquot of guinea pig lung microsomes (25 μl, containing 400 μg protein) or an aliquot of human platelet microsomes (25 μl, containing .congruent.[…] protein). The solution was incubated in a 22° water bath for 2 min.; ether (1 ml) and citric acid (25 μMoles) were added, and the tube plunged into an acetone-dry ice bath. The ether extract was transferred to a 1.0 ml Reacti-vial, and the volume reduced under nitrogen to .congruent.50 μl.
# The extract was applied to an I.T.L.C., type SG, glass fiber sheet (Gelman Instrument Co., Ann Arbor, Mich.) and developed in isooctane; methyl ethyl ketone: acetic acid (100:19:1 or 100:9:1) (19). The sheets were air dried and scanned using a Berthold LB 2760 Radiochromatographic Scanner. In certain cases, based on the radiochromatographic profile obtained, the sheets were cut, the appropriate regions placed in scintillation vials, 10 ml of LSC cocktail (Yorktown Research, S. Hackensack, NJ) added, and the relative cpm determined.
# [2] = Lean, 98 mg per day per kg in diet
# [3] = Lean, 98 mg per day per kg in diet, P ≤ 0.05
# [4] = Obese, 87 mg per day per kg in diet
structure (smiles),measurement,setting,value
"CC(=O)c1ccc(-n2ccnc2)cc1 [1-[4-(1H--imidazol-1-yl)phenyl]ethanone, 1-[4-(1H-imidazol-1-yl)phenyl]ethanone]","Carcass Lipids % of carcass weight, percent of control",male Zucker rats; [2],60% of control
same,"Carcass Lipids total, percent of control",male Zucker rats; [2],50% of control
same,"Carcass Protein % of carcass weight, percent of control",male Zucker rats; [2],111% of control
same,"Carcass Protein total, percent of control",male Zucker rats; [2],87% of control
same,"Carcass Weight, percent of control",male Zucker rats; [2],84% of control
same,Carcass Protein % of carcass weight,male Zucker rats; [2],21 ± 2 % of carcass weight
same,Carcass Protein total,male Zucker rats; [2],75 ± 5 g
same,Carcass Lipids % of carcass weight,male Zucker rats; [3],8 ± 1 % of carcass weight
same,Carcass Lipids total,male Zucker rats; [3],29 ± 5 g
same,Carcass Weight,male Zucker rats; [3],361 ± 27 g
same,"Carcass Lipids % of carcass weight, percent of control",male Zucker rats; [4],104% of control
same,"Carcass Lipids total, percent of control",male Zucker rats; [4],86% of control
same,"Carcass Protein % of carcass weight, percent of control",male Zucker rats; [4],131% of control
same,"Carcass Protein total, percent of control",male Zucker rats; [4],109% of control
same,"Carcass Weight, percent of control",male Zucker rats; [4],83% of control
same,Carcass Lipids % of carcass weight,male Zucker rats; [4],49 ± 1 % of carcass weight
same,Carcass Lipids total,male Zucker rats; [4],225 ± 6 g
same,Carcass Protein % of carcass weight,male Zucker rats; [4],18 ± 2 % of carcass weight
same,Carcass Protein total,male Zucker rats; [4],81 ± 4 g
same,Carcass Weight,"male Zucker rats; Obese, 87 mg per day per kg in diet, P ≤ 0.05",460 ± 28 g
same,IC50,[1],1 to 10 µM
